According to ChEMBL document CHEMBL5230157, “The natural anthraquinone dye purpurin exerts antibacterial activity by perturbing the FtsZ assembly” (Bioorg Med Chem, 2021):

Target: T1, Cell division protein FtsZ (Bacillus subtilis, UniProt A5Z1V5)
T1 sequence (A5Z1V5 whole entry): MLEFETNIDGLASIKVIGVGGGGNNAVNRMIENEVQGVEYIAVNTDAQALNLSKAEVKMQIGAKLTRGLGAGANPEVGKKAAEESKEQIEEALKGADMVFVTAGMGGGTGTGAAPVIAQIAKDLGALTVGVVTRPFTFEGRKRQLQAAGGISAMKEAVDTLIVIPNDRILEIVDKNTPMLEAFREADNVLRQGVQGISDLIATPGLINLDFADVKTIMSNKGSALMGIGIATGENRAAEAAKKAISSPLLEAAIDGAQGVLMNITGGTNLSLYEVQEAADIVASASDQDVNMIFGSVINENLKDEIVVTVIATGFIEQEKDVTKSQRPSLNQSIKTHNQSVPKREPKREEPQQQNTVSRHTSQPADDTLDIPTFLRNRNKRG
Assay: Binding affinity to Bacillus subtilis FtsZ assessed as dissociation constant of intrinsic tryptophan quenching incubated for 30 mins by double reciprocal plot analysis

**Q.** How did the Kd turn out when `CC1=CC(=O)c2c(O)cccc2C1=O` [PLUMBAGIN] was run?
**A.** Its Kd is 15.8 µM.
